Laboratory results: ChEMBL document CHEMBL2321853, “Novel acylethanolamide derivatives that modulate body weight through enhancement of hypothalamic pro-opiomelanocortin (POMC) and/or decreased neuropeptide Y (NPY)” (J Med Chem, 2013)
pEC50: −log10 of the molar value. Activity calls are given as the source filed them. No cut-off for these calls is given here.

What was measured:
Mus musculus [1] = experiment: Antiobesity activity in Sabra mouse assessed as reduction in body weight at 1 mg/kg, ip administered on day 0, 10, 11, 12, 24, 29 measured on day 39 relative to control; format: functional; design: scale not given: the % may be the effect or the level left; settings: route intraperitoneal
[2] = target: T1, Glucose-dependent insulinotropic receptor (Homo sapiens, UniProt Q8TDV5); experiment: Agonist activity at recombinant GPR119 receptor (unknown origin)
T1 sequence (Q8TDV5 whole entry): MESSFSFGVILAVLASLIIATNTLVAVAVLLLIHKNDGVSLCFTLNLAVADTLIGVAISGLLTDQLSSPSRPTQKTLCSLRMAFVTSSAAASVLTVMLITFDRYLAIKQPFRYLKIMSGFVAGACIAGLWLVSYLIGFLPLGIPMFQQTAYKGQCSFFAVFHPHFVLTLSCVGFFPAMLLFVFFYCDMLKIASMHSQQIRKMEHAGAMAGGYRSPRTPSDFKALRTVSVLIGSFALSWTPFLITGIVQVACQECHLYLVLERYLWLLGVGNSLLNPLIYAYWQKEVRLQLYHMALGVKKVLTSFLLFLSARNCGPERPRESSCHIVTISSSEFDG

Mus musculus [3] = experiment: Antiobesity activity in Sabra mouse assessed as reduction in body weight at 1 mg/kg, ip administered on day 0, 10, 11, 12, 24, 29 measured on day 29 relative to control; format: functional; design: scale not given: the % may be the effect or the level left; settings: route intraperitoneal
Mus musculus [4] = experiment: Antiobesity activity in Sabra mouse assessed as reduction in body weight at 1 mg/kg, ip administered on day 0, 10, 11, 12, 24, 29 measured on day 24 relative to control; format: functional; design: scale not given: the % may be the effect or the level left; settings: route intraperitoneal
Mus musculus [5] = experiment: Antiobesity activity in Sabra mouse assessed as reduction in body weight at 1 mg/kg, ip administered on day 0, 10, 11, 12, 24, 29 measured on day 12 relative to control; format: functional; design: scale not given: the % may be the effect or the level left; settings: route intraperitoneal
Mus musculus [6] = experiment: Antiobesity activity in Sabra mouse assessed as reduction in body weight at 1 mg/kg, ip administered on day 0, 10, 11, 12, 24, 29 measured on day 19 relative to control; format: functional; design: scale not given: the % may be the effect or the level left; settings: route intraperitoneal
Mus musculus [7] = experiment: Antiobesity activity in Sabra mouse assessed as reduction in body weight at 1 mg/kg, ip administered on day 0, 10, 11, 12, 24, 29 measured on day 36 relative to control; format: functional; design: scale not given: the % may be the effect or the level left; settings: route intraperitoneal
Mus musculus [8] = experiment: Antiobesity activity in Sabra mouse assessed as reduction in body weight at 1 mg/kg, ip administered on day 0, 10, 11, 12, 24, 29 measured on day 33 relative to control; format: functional; design: scale not given: the % may be the effect or the level left; settings: route intraperitoneal
Mus musculus [9] = experiment: Antiobesity activity in Sabra mouse assessed as reduction in body weight at 1 mg/kg, ip administered on day 0, 10, 11, 12, 24, 29 measured on day 22 relative to control; format: functional; design: scale not given: the % may be the effect or the level left; settings: route intraperitoneal
Mus musculus [10] = experiment: Antiobesity activity in Sabra mouse assessed as reduction in body weight at 1 mg/kg, ip administered on day 0, 10, 11, 12, 24, 29 measured on day 26 relative to control; format: functional; design: scale not given: the % may be the effect or the level left; settings: route intraperitoneal
[11] = target: Transient receptor potential cation channel subfamily V member 1 (Homo sapiens, UniProt Q8NER1); experiment: Agonist activity at TRPV1 receptor (unknown origin)
Mus musculus [12] = experiment: Antiobesity activity in Sabra mouse assessed as change in body weight at 1 mg/kg, ip administered on day 8, 12 and 43 measured on day 50 relative to control; format: functional; settings: route intraperitoneal
Mus musculus [13] = experiment: Antiobesity activity in C57BL/6 mouse assessed as change in glucose level in blood at 5 mg/kg, ip administered on day 1, 4, 5, 7, 17, 15, 19 measured on day 11 relative to control; format: functional; settings: route intraperitoneal
Mus musculus [14] = experiment: Antiobesity activity in Sabra mouse assessed as change in body weight at 1 mg/kg, ip administered on day 8, 12 and 43 measured on day 71 relative to control; format: functional; settings: route intraperitoneal
Mus musculus [15] = experiment: Antiobesity activity in C57BL/6 mouse assessed as weight loss at 5 mg/kg, ip administered on day 1, 4, 5, 7, 17, 15, 19 measured on day 3 relative to control; format: functional; settings: route intraperitoneal
Mus musculus [16] = experiment: Antiobesity activity in Sabra mouse assessed as change in body weight at 1 mg/kg, ip administered on day 8, 12 and 43 measured on day 12 relative to control; format: functional; settings: route intraperitoneal
Mus musculus [17] = experiment: Antiobesity activity in Sabra mouse assessed as change in body weight at 1 mg/kg, ip administered on day 8, 12 and 43 measured on day 36 relative to control; format: functional; settings: route intraperitoneal
Mus musculus [18] = experiment: Antiobesity activity in C57BL/6 mouse assessed as change in glucose level in blood at 5 mg/kg, ip administered on day 1, 4, 5, 7, 17, 15, 19 measured on day 9 relative to control; format: functional; settings: route intraperitoneal
Mus musculus [19] = experiment: Antiobesity activity in C57BL/6 mouse assessed as weight loss at 5 mg/kg, ip administered on day 1, 4, 5, 7, 17, 15, 19 measured on day 15 relative to control; format: functional; settings: route intraperitoneal
Mus musculus [20] = experiment: Antiobesity activity in Sabra mouse assessed as change in body weight at 1 mg/kg, ip administered on day 8, 12 and 43 measured on day 43 relative to control; format: functional; settings: route intraperitoneal
Mus musculus [21] = experiment: Antiobesity activity in C57BL/6 mouse assessed as change in glucose level in blood at 5 mg/kg, ip administered on day 1, 4, 5, 7, 17, 15, 19 measured on day 3 relative to control; format: functional; settings: route intraperitoneal
Mus musculus [22] = experiment: Antiobesity activity in Sabra mouse assessed as change in body weight at 1 mg/kg, ip administered on day 8, 12 and 43 measured on day 33 relative to control; format: functional; settings: route intraperitoneal
Mus musculus [23] = experiment: Antiobesity activity in C57BL/6 mouse assessed as weight loss at 5 mg/kg, ip administered on day 1, 4, 5, 7, 17, 15, 19 measured on day 5 relative to control; format: functional; settings: route intraperitoneal
Mus musculus [24] = experiment: Antiobesity activity in C57BL/6 mouse assessed as weight loss at 5 mg/kg, ip administered on day 1, 4, 5, 7, 17, 15, 19 measured on day 19 relative to control; format: functional; settings: route intraperitoneal
Mus musculus [25] = experiment: Antiobesity activity in C57BL/6 mouse assessed as weight loss at 5 mg/kg, ip administered on day 1, 4, 5, 7, 17, 15, 19 measured on day 8 relative to control; format: functional; settings: route intraperitoneal
Mus musculus [26] = experiment: Antiobesity activity in C57BL/6 mouse assessed as change in cholesterol level at 5 mg/kg, ip measured on day 36 (reference value: 86.58 mg/dL); format: functional; settings: route intraperitoneal
Mus musculus [27] = experiment: Antiobesity activity in Sabra mouse assessed as change in body weight at 1 mg/kg, ip administered on day 8, 12 and 43 measured on day 8 relative to control; format: functional; settings: route intraperitoneal
Mus musculus [28] = experiment: Antiobesity activity in C57BL/6 mouse assessed as weight loss at 5 mg/kg, ip administered on day 1, 4, 5, 7, 17, 15, 19 measured on day 9 relative to control; format: functional; settings: route intraperitoneal
Mus musculus [29] = experiment: Antiobesity activity in C57BL/6 mouse assessed as change in triglyceride level at 5 mg/kg, ip measured on day 36 (reference value: 0.92 mg/dL); format: functional; settings: route intraperitoneal
Mus musculus [30] = experiment: Effect on neurological score in Sabra mouse assessed as change in neurological score at 1 mg/kg, ip administered on day 8, 12 and 43 by NSS method; format: functional, organism-based; design: dose 1 mg/kg
Mus musculus [31] = experiment: Antiobesity activity in C57BL/6 mouse assessed as change in glucose level in blood at 5 mg/kg, ip administered on day 1, 4, 5, 7, 17, 15, 19 measured on day 5 relative to control; format: functional; settings: route intraperitoneal
Mus musculus [32] = experiment: Increase in ALT levels in Sabra mouse at 1 mg/kg, ip administered on day 8, 12 and 43 measured on day 74; format: ADME, organism-based; design: dose 1 mg/kg, route intraperitoneal; settings: in vivo
Mus musculus [33] = experiment: Enhancement of cognitive function in Sabra mouse at 1 mg/kg, ip administered on day 8, 12 and 43 by eight-arm maze test; format: functional, organism-based; design: dose 1 mg/kg
Mus musculus [34] = experiment: Antiobesity activity in C57BL/6 mouse assessed as change in glucose level in blood at 5 mg/kg, ip administered on day 1, 4, 5, 7, 17, 15, 19 measured on day 15 relative to control; format: functional; settings: route intraperitoneal
Mus musculus [35] = experiment: Antiobesity activity in C57BL/6 mouse assessed as weight loss at 5 mg/kg, ip administered on day 1, 4, 5, 7, 17, 15, 19 measured on day 12 relative to control; format: functional; settings: route intraperitoneal
Mus musculus [36] = experiment: Antiobesity activity in C57BL/6 mouse assessed as change in AST level at 5 mg/kg, ip measured on day 36 (reference value: 146.7 IU/L); format: functional; settings: route intraperitoneal
Mus musculus [37] = experiment: Antiobesity activity in Sabra mouse assessed as change in body weight at 1 mg/kg, ip administered on day 8, 12 and 43 measured on day 29 relative to control; format: functional; settings: route intraperitoneal
Mus musculus [38] = experiment: Antiobesity activity in C57BL/6 mouse assessed as weight loss at 5 mg/kg, ip administered on day 1, 4, 5, 7, 17, 15, 19 measured on day 17 relative to control; format: functional; settings: route intraperitoneal
Mus musculus [39] = experiment: Antiobesity activity in Sabra mouse assessed as change in body weight at 1 mg/kg, ip administered on day 8, 12 and 43 measured on day 5 relative to control; format: functional; settings: route intraperitoneal
Mus musculus [40] = experiment: Antiobesity activity in Sabra mouse assessed as change in body weight at 1 mg/kg, ip administered on day 8, 12 and 43 measured on day 15 relative to control; format: functional; settings: route intraperitoneal
Mus musculus [41] = experiment: Antiobesity activity in C57BL/6 mouse assessed as change in glucose level in blood at 5 mg/kg, ip administered on day 1, 4, 5, 7, 17, 15, 19 measured on day 19 relative to control; format: functional; settings: route intraperitoneal
Mus musculus [42] = experiment: Antiobesity activity in C57BL/6 mouse assessed as weight loss at 5 mg/kg, ip administered on day 1, 4, 5, 7, 17, 15, 19 measured on day 11 relative to control; format: functional; settings: route intraperitoneal
Mus musculus [43] = experiment: Antiobesity activity in Sabra mouse assessed as change in body weight at 1 mg/kg, ip administered on day 8, 12 and 43 measured on day 54 relative to control; format: functional; settings: route intraperitoneal

Chain of Transient receptor potential cation channel subfamily V member 1 (Q8NER1 whole entry): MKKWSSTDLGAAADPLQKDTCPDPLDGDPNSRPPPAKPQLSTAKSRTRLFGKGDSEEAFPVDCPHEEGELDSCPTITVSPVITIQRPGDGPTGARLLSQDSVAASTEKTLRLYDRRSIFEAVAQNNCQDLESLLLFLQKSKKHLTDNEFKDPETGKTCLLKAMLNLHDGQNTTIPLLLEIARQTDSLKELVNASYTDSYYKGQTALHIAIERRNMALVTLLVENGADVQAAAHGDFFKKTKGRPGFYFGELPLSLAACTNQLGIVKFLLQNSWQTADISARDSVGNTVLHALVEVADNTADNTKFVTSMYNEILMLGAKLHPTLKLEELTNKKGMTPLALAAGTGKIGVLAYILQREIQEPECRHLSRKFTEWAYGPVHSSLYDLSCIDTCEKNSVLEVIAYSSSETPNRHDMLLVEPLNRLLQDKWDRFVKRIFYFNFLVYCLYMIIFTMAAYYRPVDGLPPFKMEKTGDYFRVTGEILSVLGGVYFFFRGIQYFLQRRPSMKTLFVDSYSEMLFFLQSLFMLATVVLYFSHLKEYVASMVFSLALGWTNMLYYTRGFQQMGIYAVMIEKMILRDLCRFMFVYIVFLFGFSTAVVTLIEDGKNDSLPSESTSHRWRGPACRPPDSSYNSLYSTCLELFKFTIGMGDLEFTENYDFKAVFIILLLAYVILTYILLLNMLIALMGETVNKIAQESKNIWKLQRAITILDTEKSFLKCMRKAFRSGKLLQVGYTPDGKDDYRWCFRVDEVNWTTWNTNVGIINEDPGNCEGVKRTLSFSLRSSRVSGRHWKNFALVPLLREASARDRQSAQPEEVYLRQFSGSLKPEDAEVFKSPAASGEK

## CCCCCCCC/C=C\CCCCCCCC(=O)NCCO [OLEOYLETHANOLAMIDE]
Mus musculus [1]
  Activity: -3.42%
[2]
  pEC50: 5.49
Mus musculus [3]
  Activity: -0.2%
Mus musculus [4]
  Activity: -0.18%
Mus musculus [5]
  Activity: -0.23%
Mus musculus [6]
  Activity: -1.17%
Mus musculus [7]
  Activity: -2.57%
Mus musculus [8]
  Activity: -0.15%
Mus musculus [9]
  Activity: -1.17%
Mus musculus [10]
  Activity: 1.43%
[11]
  pEC50: 7.40

## Cc1c(C(=O)NN2CCCCC2)nn(-c2ccc(Cl)cc2Cl)c1-c1ccc(Cl)cc1 [RIMONABANT]
Mus musculus [12]
  Activity: -2.4%
Mus musculus [13]
  Activity: -20.7%
Mus musculus [14]
  Activity: -0.9%
Mus musculus [15]
  Activity: -0.6%
Mus musculus [16]
  Activity: 0.9%
Mus musculus [17]
  Activity: -2.2%
Mus musculus [18]
  Activity: -16.2%
Mus musculus [19]
  Activity: -4.5%
Mus musculus [20]
  Activity: -3.1%
Mus musculus [21]
  Activity: 0.86%
Mus musculus [22]
  Activity: 0.8%
Mus musculus [23]
  Activity: -3.2%
Mus musculus [24]
  Activity: -4.5%
Mus musculus [25]
  Activity: -3.5%
Mus musculus [26]
  Activity: 94.16 mg/dL
Mus musculus [27]
  Activity: 3.2%
Mus musculus [28]
  Activity: -4.6%
Mus musculus [29]
  Activity: 1.286 mg/dL
Mus musculus [30]
  Activity: inactive
Mus musculus [31]
  Activity: -11%
Mus musculus [32]
  Activity: Active
Mus musculus [33]
  Activity: inactive
Mus musculus [34]
  Activity: -15.5%
Mus musculus [35]
  Activity: -4.5%
Mus musculus [36]
  Activity: 125.3 IU/L
Mus musculus [37]
  Activity: 1.5%
Mus musculus [38]
  Activity: -1.9%
Mus musculus [39]
  Activity: 0.3%
Mus musculus [40]
  Activity: 1.6%
Mus musculus [41]
  Activity: 19.8%
Mus musculus [42]
  Activity: -3.1%
Mus musculus [43]
  Activity: -3.5%
